3 compounds from patent publication US20140080114A1, “METHODS, KITS AND COMPOSITIONS FOR INACTIVATION OF VIRAL AGENTS IN WHOLE BLOOD AND RED BLOOD CELL CONCENTRATES” (APHIOS CORPORATION, priority 2012, published 2014) can be followed below.

The subject of the test is bovine viral diarrhea virus (BVDV). In words: Hypericin-luciferase inactivation of BVDV spiked into human red blood cell concentrate, titration of unwashed and washed samples (CPE, TCID50). It counts as cell-based. Particulars: for Unwashed Titer / Combined VRF (Titer of unwashed RBC control − Titer of washed sample) / Unwashed VRF (Titer of RBC control − Titer of sample) / Washed Titer / Washed VRF (Titer of RBC control − Titer of sample): Table 1 (Example 1), hypericin low=40, high=200 μg/mL, luciferase low=0.8, high=4.0 μM; for Unwashed Titer: RBCC, RT 2 hours in the dark, luciferin 0.08 mM, ATP 0.8 mM. The procedure: This dose range had not been tested in the previous experiments. Ten different combinations of DMEM (—Ca++, —Mg++), RBCC, virus, hypericin, luciferin, adenosine triphosphate (ATP) and luciferase were prepared to all contain equivalent titers of BVDV calculated to be 6.48 log 10TCID50/mL (logs) based on the titer of the original virus stock. The concentrations of hypericin tested were 40, 80 and 120 μg/mL. Luciferase was tested at 0.16, 0.32 and 0.8 μM. Luciferin and ATP were present at 80 and 800 μM respectively.
The compounds were mixed and incubated at RT for 2 hours in the dark followed by titration of unwashed and washed samples as previously described. Washing rows of wells with dilutions 1 and 2 was performed 2 days post-infection. Final CPEs were read 10 days post-infection.

Where only a bound is given, the exact number is not on record here.

Regarding `Cc1cc(O)c2c(=O)c3c(O)cc(O)c4c5c(O)cc(O)c6c(=O)c7c(O)cc(C)c8c1c2c(c34)c(c78)c65` [hypericin, reference compound], the “optimal dose of hypericin” value (with different doses of luciferase, for BVDV) came to 40 µg/mL.

Consider `Cc1cc(O)c2c(=O)c3c(O)cc(O)c4c5c(O)cc(O)c6c(=O)c7c(O)cc(C)c8c1c2c(c34)c(c78)c65` [HL-LN, hypericin], for which the “Unwashed Titer” value is recorded as 3.48 log10TCID50/mL, the “Combined VRF (Titer of unwashed RBC control − Titer of washed sample)” value was above 4.01 log TCID50, the “Unwashed VRF (Titer of RBC control − Titer of sample)” value was found to be 2.87 log TCID50 and the “Washed Titer” value is recorded as below 2.34 log10TCID50/mL. Besides, the “Washed VRF (Titer of RBC control − Titer of sample)” value was above 1.64 log TCID50.

With `Cc1cc(O)c2c(=O)c3c(O)cc(O)c4c5c(O)cc(O)c6c(=O)c7c(O)cc(C)c8c1c2c(c34)c(c78)c65` [HH-LN, hypericin], the “Unwashed Titer” value was 3.10 log10TCID50/mL, the “Combined VRF (Titer of unwashed RBC control − Titer of washed sample)” value was 3.87 log TCID50, the “Unwashed VRF (Titer of RBC control − Titer of sample)” value is listed as 3.25 log TCID50 and the “Washed Titer” value came out at 2.48 log10TCID50/mL. Besides, the “Washed VRF (Titer of RBC control − Titer of sample)” value is 1.50 log TCID50.
